Results taken from patent US7964559B2, “MVL, an antiviral protein from a cyanobacterium” (The United States of America, as represented by the …, priority 2004, dated 2011).
“Also recorded” adds a separate entry of the source. Read-outs that look alike come from different tables or passages of the source.

Key:
[1] = target: T1, MVL (Microcystis viridis, UniProt Q9RHG4); type: binding; settings: for Binding to MVL: Table 1, MVL binding studies
[2] = target: T1, MVL; type: cell-based
[3] = target: T1, MVL; type: binding; settings: for Stoichiometry: carbohydrates per MVL monomer, 10 mM Tris pH 6.5; for ΔG: ΔG = −RT · lnKA, T = 298 K
[4] = tested on: M-tropic virus SF162 and a T-tropic virus (LAV); assay: Single round HIV-infectivity assay; type: cell-based; settings: read-out: approximate IC50, HIV infectivity
[5] = tested on: HIV-1 T-cell tropic (T-tropic) strain LAV; settings: read-out: IC50, inhibition of Env-mediated fusion
[6] = tested on: HIV-1 macrophage tropic (M-tropic) strain SF162; settings: read-out: IC50, inhibition of Env-mediated fusion
[7] = excess carbohydrate, pH 6.85, 27° C.

**Q.** For Man9GlcNAc2 [oligomannose-9], which “Binding to MVL” value [1] is on record?
**A.** 3

**Q.** What about the “effect of pretreatment of MVL on inhibition of fusion by MVL” value ([2]; MVL 200 nM, 5-fold excess of carbohydrate) of the same molecule?
**A.** partially reduced inhibition

**Q.** Which “lifetime of the MVL:carbohydrate complex” value ([1]; (2πΔδ)^−1 from chemical shift differences) does the source give for Man6GlcNAc2 [oligomannose-6] here?
**A.** > 16 ms

**Q.** And the “Binding to MVL” value [1]?
**A.** 3

**Q.** And the “binding to MVL / change of 1H-15N correlation spectra of MVL” value (“binding to MVL / change” below) [1, 7]?
**A.** dramatic changes

**Q.** What about the ΔH ([3]; 25° C., pH 6.5) of the same molecule?
**A.** -20.8 ± 0.1 kcal/mol

**Q.** What about the Stoichiometry ([3]; one site model, 25° C., listed as Man6) of the same molecule?
**A.** 2.06 ± 0.01

**Q.** And the Stoichiometry ([3]; one site model, 25° C., listed as Man6GlcNAc2)?
**A.** two

**Q.** And the Ka ([3]; equilibrium association constant, one site model, 25° C., pH 6.5)?
**A.** 4.5 (±0.3)×10^6 M^−1

**Q.** What about the ΔG [3] of the same molecule?
**A.** -9.0 ± 0.6 kcal/mol

**Q.** With “Manα (1→3)[Manα(1→6)]Manβ [Manα(1→3)[Manα(1→6)]Man]” as the molecule, how does the “binding to MVL / change” value ([1]; pH 6.85) read?
**A.** identical to that of free MVL; also recorded: nor do they bind

**Q.** And the “effect of pretreatment of MVL on inhibition of fusion by MVL” value [2]?
**A.** no effect

**Q.** How did the “binding to MVL / change” value [1, 7] turn out when `CC(=O)N[C@H]1[C@H](O[C@H]2[C@H](O)[C@@H](NC(C)=O)C(O)O[C@@H]2CO)O[C@H](CO)[C@@H](O)[C@@H]1O` (stereo partly shown) [GlcNAcβ(1→4) GlcNAc, GlcNAcβ(1→4)GlcNAc] was run?
**A.** nor do they bind

**Q.** What about the “binding to MVL / change” value ([1]; excess carbohydrate, pH 6.85, 27° C., listed as GlcNAc2) of the same molecule?
**A.** identical to that of free MVL

**Q.** `CC(=O)N[C@H]1[C@H](O[C@H]2[C@H](O)[C@@H](NC(C)=O)C(O)O[C@@H]2CO)O[C@H](CO)[C@@H](O[C@@H]2O[C@H](CO[C@H]3O[C@H](CO[C@H]4O[C@H](CO)[C@@H](O)[C@H](O)[C@@H]4O)[C@@H](O)[C@H](O[C@H]4O[C@H](CO)[C@@H](O)[C@H](O)[C@@H]4O)[C@@H]3O)[C@@H](O)[C@H](O[C@H]3O[C@H](CO)[C@@H](O)[C@H](O)[C@@H]3O)[C@@H]2O)[C@@H]1O` (stereo partly shown) [oligomannose-5, Man5GlcNAc2] was tested. Which “Binding to MVL” value [1] did it give?
**A.** 3

**Q.** How did the “Binding to MVL” value [1] turn out when `CC(=O)N[C@H]1[C@H](O[C@H]2[C@H](O)[C@@H](NC(C)=O)C(O)O[C@@H]2CO)O[C@H](CO)[C@@H](O[C@@H]2O[C@H](CO[C@H]3O[C@H](CO)[C@@H](O)[C@H](O)[C@@H]3O)[C@@H](O)[C@H](O)[C@@H]2O)[C@@H]1O` (stereo partly shown) [oligomannose-2A, Manα(1→6)Manβ(1→4)GlcNAcβ(1→4)GlcNAc] was run?
**A.** 3

**Q.** And the “binding to MVL / change” value [1, 7]?
**A.** binds with high affinity

**Q.** And the ΔH ([3]; 25° C., pH 6.5)?
**A.** -10.5 ± 0.04 kcal/mol

**Q.** And the Stoichiometry ([3]; one site model, 25° C., listed as Man2A)?
**A.** 2.04 ± 0.05

**Q.** What about the Stoichiometry ([3]; one site model, 25° C., listed as Man2GlcNAc2) of the same molecule?
**A.** two

**Q.** What about the ΔG [3] of the same molecule?
**A.** -7.4 ± 0.6 kcal/mol

**Q.** For `CC(=O)N[C@H]1C(O)O[C@H](CO)[C@@H](O[C@@H]2O[C@H](CO)[C@@H](O)[C@H](O)[C@@H]2O)[C@@H]1O` (stereo partly shown) [Manβ(1→4)GlcNAc], which “binding to MVL / change” value ([1]; pH 6.85) is on record?
**A.** nor do they bind

B1: MVL: 113 amino acid, 13 kDa carbohydrate binding protein (lectin) from Microcystis viridis NIES-102, SEQ ID NO: 3 (protein, listed as Microcystis viridis)
chain: ASYKVNIPAGPLWSNAEAQQVGPKIAAAHQGNFTGQWTTVVESAMSVVEVELQVENTGIHEFKTDVLAGPLWSNDEAQKLGPQIAASYGAEFTGQWRTIVEGVMSVIQIKYTF
**Q.** With B1 as the molecule, how does the IC50 [4] read?
**A.** 30 to 50 nM

**Q.** What about the IC50 [5] of the same molecule?
**A.** 30 ± 4 nM

**Q.** What about the IC50 [6] of the same molecule?
**A.** 37 ± 6 nM
